How the values were obtained:
S. aureus = test: Minimum Bactericidal Concentration test; type: cell-based; conditions: 10-minute contact with the test agent at 37°C; at least a 3 log unit reduction in viable cell count
E. coli = test: Minimum Bactericidal Concentration test; type: cell-based; conditions: 10-minute contact with the test agent at 37°C; at least a 3 log unit reduction in viable cell count
Staphylococcus = conditions: cited from earlier work
molds = conditions: cited from earlier work

SMILES	Minimum Bactericidal Concentration S. aureus (S. aureus) [ppm]	Minimum Bactericidal Concentration E. coli (E. coli) [ppm]	concentration that inhibits Staphylococcus (Staphylococcus) [ppm]	concentration that inhibits molds (molds) [ppm]
O.O.O.O.O.O.O.O.O=S(=O)([O-])[O-].O=S(=O)([O-])[O-].O=S(=O)([O-])[O-].[La+3].[La+3] [La2(SO4)3.8H2O]	>7100	>7100	–	–
O.O.O.O.O.O.O=[N+]([O-])[O-].O=[N+]([O-])[O-].O=[N+]([O-])[O-].[La+3] [La(NO3)3.6H2O]	>4300	>4300	–	–
O.O.O.O.O.O.[Cl-].[Cl-].[Cl-].[La+3] [LaCl3.6H2O]	>3500	>3500	–	–
O=[N+]([O-])[O-].O=[N+]([O-])[O-].O=[N+]([O-])[O-].[Ce+3] [cerium nitrate]	–	–	1000	1000
